Read-outs that look alike come from different tables or passages of the source. Marks after values point to notes of the source that are not given here.
Experiments:
advanced solid tumors = assay: Antitumor activity by RECIST; format: in vivo, human
[1] = Plasma pharmacokinetics, noncompartmental analysis; format: in vivo, human; conditions: for clearance: total body clearance
[2] = test system: patients with advanced or metastatic solid tumors; conditions: in vivo
HER2 = conditions: read-out: half-maximal inhibitory concentration (IC50); cited from earlier work
HER4 = conditions: read-out: half-maximal inhibitory concentration (IC50); cited from earlier work
[3] = test system: patients with advanced solid tumors; conditions: cited from earlier work
[4] = test system: patients with advanced or metastatic solid tumors
[5] = 20 mg q.d. oral, Day 27 steady state, n = 3
[6] = 60 mg q.d. oral, Day 27 steady state, individual value from one patient

## CN(C)C/C=C/C(=O)Nc1cc2c(Nc3ccc(F)c(Cl)c3)ncnc2cc1O[C@H]1CCOC1 [afatinib]
Advanced solid tumors; 40 mg dose cohort
  patients with stable disease: Five
Advanced solid tumors; 29 evaluable patients, RECIST
  objective responses: No objective responses
Advanced solid tumors; one in 20 mg/d group, two in 40 mg/d group
  patients remaining on treatment for more than 16 weeks: Three
Advanced solid tumors; one ovarian cancer patient, 20 mg group
  duration of stable disease: 204 days
[1]; 10 mg q.d. oral, Day 27 steady state, N = 2
  Cpre,ss gMean: 2.64^b ng/mL
[1]; 10 mg q.d. oral, Day 27 steady state, n = 3
  CL/F,ss gMean: 2980 mL/min
[1]; [5]
  CL/F,ss gMean: 755 mL/min
  Cpre,ss gMean: 12.5 ng/mL
[1]; 40 mg q.d. oral, Day 27 steady state, N = 16
  Cpre,ss gMean: 16.1^c ng/mL
[1]; [6]
  CL/F,ss: 567 mL/min
  Cpre,ss: 52.3 ng/mL
[1]; 10-60 mg, steady state
  dose-proportionality: no obvious deviation from dose-proportionality
[1]; Treatment Period 1, once-daily oral
  steady-state reached: ≤ 8 days
[1]; human, plasma, oral
  half-life: 37.4 h
[1]; human, plasma, oral, apparent volume of distribution during the terminal phase, overall gMean, all groups (data not shown)
  Vd: 3630 L
[1]; human, plasma, oral, gMean, range across dose groups
  clearance: 567 to 2980 mL/min
[1]; human, plasma, oral, overall gMean, across all groups (data not shown)
  clearance: 1330 mL/min
[1]; human, plasma, po
  half-life: 34 to 48 h
[2]; human
  Patients discontinued owing to DLT: 2 (6.7) n, %
  Patients discontinued owing to Other AEs: 3 (10.0) n, %
  dermatitis acneiform, treatment-related AE, patients: 33.3%
  diarrhea, treatment-related AE, patients: 76.7%
  fatigue, treatment-related AE, patients: 33.3%
  mucosal inflammation, treatment-related AE, patients: 43.3%
  onset of diarrhea during the first treatment course, patients: 70%
  patients with AEs considered related to study medication: 29
  patients with at least one AE: 30
[2]; human, 28 days
  Patients with DLT events during the initial 28-day treatment period: 3 n
[2]
  cardiac events: No cardiac events were reported
  patients with DLT, in total: three patients
HER2
  IC50: 14 nM
HER4
  IC50: 1 nM
[3]; 2-week on/2-week off schedule
  dose that could be safely administered: 70 mg/day
[3]; 3-week on/1-week off schedule
  dose administered with tolerable side effects: 40 mg/day
  maximum tolerated dose (MTD): 55 mg/day
[3]; once-daily, 2-week on/off schedule
  recommended Phase II dose (RP2D): 70 mg
[4]; 10 mg/day
  Patients discontinued owing to Disease progression: 4 (80) n, %
[4]; 20 mg/day
  Patients discontinued owing to Disease progression: 3 (100) n, %
[4]; 40 mg/day
  Patients discontinued owing to Disease progression: 14 (73.7) n, %
[4]; 60 mg/day
  Patients discontinued owing to Disease progression: 1 (33.3) n, %
[4]; Total
  Patients discontinued owing to Disease progression: 22 (73.3) n, %
[4]; continuous once-daily oral, 28-day cycles
  MTD: 40 mg/day
